For 27 compounds, IC50 results are on record in US9598440B2, “Inhibitors of IRAK4 activity” (MERCK SHARP & DOHME CORP., priority 2012, dated 2017).

As usually defined, the IC50 is the concentration at which inhibition is half-maximal. Read a high IC50 as weaker potency in that assay.

The target in the test is IRAK4 (Homo sapiens (Human), UniProt Q9NWZ3). Nature of the test: Determination of IRAK4 kinase activity (IMAP fluorescence polarization, phosphorylation of fluorescent peptide substrate). The format is biochemical. The conditions noted are these: 0.5 nM GST tagged IRAK4, 100 nM peptide substrate RP7030, 100 μM ATP, 30 minutes at 25° C. In a few lines: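 GST-tagged IRAK4 (0.5 nM) phosphorylated 100 nM fluorescent peptide substrate with 100 µM ATP in Tris-HCl pH 7.2, 1 mM MgCl2, 1 mM DTT, 0.01% Tween 20 for 30 min at 25 °C. Phosphorylation read by IMAP nanoparticle binding as fluorescence polarization increase.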
IRAK4, sequence (Q9NWZ3 whole entry): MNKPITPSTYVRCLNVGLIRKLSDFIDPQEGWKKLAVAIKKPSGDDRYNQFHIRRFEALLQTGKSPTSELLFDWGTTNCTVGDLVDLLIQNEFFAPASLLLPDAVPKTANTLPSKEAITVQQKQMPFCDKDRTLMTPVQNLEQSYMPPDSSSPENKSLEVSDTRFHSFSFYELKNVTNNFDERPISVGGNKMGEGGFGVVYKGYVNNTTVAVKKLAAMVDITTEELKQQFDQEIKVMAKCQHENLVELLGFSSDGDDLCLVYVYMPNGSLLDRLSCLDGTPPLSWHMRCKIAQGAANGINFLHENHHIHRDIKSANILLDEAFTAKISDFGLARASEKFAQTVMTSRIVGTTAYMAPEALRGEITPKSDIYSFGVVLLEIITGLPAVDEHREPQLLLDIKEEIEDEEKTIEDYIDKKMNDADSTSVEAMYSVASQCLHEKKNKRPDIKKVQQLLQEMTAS
`CO[C@@H]1[C@H](O)[C@@H](CO)C[C@H]1Nc1nc(N)ncc1-c1nc2ccccc2s1` [Example 142, (1R,2S,3R,5R)-3-((2-amino-5-(benzo[d]thiazol-2-yl)pyrimidin-4-yl)amino)-5-(hydroxymethyl)-2-methoxycyclopentanol]: the IC50 stood at 68 nM.
`Cc1cc(Nc2cc(N[C@@H]3C[C@H](C(C)(C)O)[C@@H](O)[C@H]3O)c(-c3nc4ccccc4s3)cn2)cc(C)n1` [Example 159, (1R,2S,3R,5S)-3-((5-(benzo[d]thiazol-2-yl)-2-((2,6-dimethylpyridin-4-yl)amino)pyridin-4-yl)amino)-5-(2-hydroxypropan-2-yl)cyclopentane-1,2-diol] displayed an IC50 of 6 nM.
In the case of `Cc1nc(Nc2cccc(O)c2)nc(N[C@@H]2C[C@H](CO)[C@@H](O)[C@H]2O)c1-c1nc2ccccc2s1` [Example 104, (1R,2S,3R,5R)-3-((5-(benzo[d]thiazol-2-yl)-2-((3-hydroxyphenyl)amino)-6-methylpyrimidin-4-yl)amino)-5-(hydroxymethyl)cyclopentane-1,2-diol], the IC50 came to 219 nM.
With `COc1cc(Nc2ncc(-c3nc4ccncc4s3)c(N[C@@H]3C[C@H](CO)[C@@H](O)[C@H]3O)n2)ccn1` [Example 75, 6-(((1R,2S,3R,4R)-2,3-dihydroxy-4-(hydroxymethyl)cyclopentyl)amino)-2-((2-methoxypyridin-4-yl)amino)-5-(thiazolo[5,4-c]pyridin-2-yl)pyrimidine], 2 nM corresponded to half-maximal inhibition (IC50).
Under `Cc1cc(Nc2ncc(-c3nc4cnccc4s3)c(N[C@@H]3CC(C(C)(C)O)[C@@H](O)[C@H]3O)n2)cc(C)n1` (stereo in doubt) [Example 137, 6-(((1R,2S,3R,4R)-2,3-dihydroxy-4-(2-hydroxypropan-2-yl)cyclopentyl)amino)-2-((2,6-dimethylpyridin-4-yl)amino)-5-(thiazolo[4,5-c]pyridin-2-yl)pyrimidine] stands 0.2 nM.
For `COc1cc(Nc2ncc(-c3ccc4ccccc4n3)c(N[C@@H]3C[C@H](CO)[C@@H](O)[C@H]3OC)n2)ccn1` [Example 141, (1R,2S,3R,5R)-5-(hydroxymethyl)-2-methoxy-3-((2-((2-methoxypyridin-4-yl)amino)-5-(quinolin-2-yl)pyrimidin-4-yl)amino)cyclopentanol], half-maximal inhibition (IC50) was put at 33 nM.
`CC(C)(O)C1C[C@@H](Nc2nc(Nc3cccc(C(F)(F)F)c3)ncc2-c2nc3ccccc3s2)[C@H](O)[C@@H]1O` (stereo in doubt) [Example 121, 5-(benzo[d]thiazol-2-yl)-6-(((1R,2S,3R,4R)-2,3-dihydroxy-4-(2-hydroxypropan-2-yl)cyclopentyl)amino)-2-((3-(trifluoromethyl)phenyl)amino)pyrimidine] yielded an IC50 of 386 nM.
The compound `OC[C@H]1C[C@@H](Nc2nc(Nc3cncnc3)ncc2-c2nc3ccncc3s2)[C@H](O)[C@@H]1O` [Example 74, 6-(((1R,2S,3R,4R)-2,3-dihydroxy-4-(hydroxymethyl)cyclopentyl)amino)-2-(pyrimidin-5-ylamino)-5-(thiazolo[5,4-c]pyridin-2-yl)pyrimidine] gave an IC50 of 6 nM.
Under `COc1cc(Nc2ncc(-c3nc4ccccc4s3)c(N[C@@H]3C[C@H](CO)[C@@H](O)[C@H]3OC)n2)ccn1` [Example 139, (1R,2S,3R,5R)-3-((5-(benzo[d]thiazol-2-yl)-2-((2-methoxypyridin-4-yl)amino)pyrimidin-4-yl)amino)-5-(hydroxymethyl)-2-methoxycyclopentanol] stands 29 nM.
In turn, `COc1cc(Nc2ncc(-c3nc4ccccc4s3)c(N[C@@H]3C[C@H](CO)[C@@H](O)[C@H]3O)n2)ccn1` [Example 7, (1R,2S,3R,5R)-3-((5-(benzo[d]thiazol-2-yl)-2-((2-methoxypyridin-4-yl)amino)pyrimidin-4-yl)amino)-5-(hydroxymethyl)cyclopentane-1,2-diol] returned an IC50 of 4.6 nM.
On to `COC(=O)[C@H]1C[C@@H](Nc2nc(Nc3cc(C)nc(C)c3)ncc2-c2nc3ccccc3s2)[C@H](OC)[C@@H]1O` [Example 148], for which the IC50 came out at 2.1 nM.
In turn, `Cc1nc(Nc2ccc(O)cc2)nc(N[C@@H]2C[C@H](CO)[C@@H](O)[C@H]2O)c1-c1nc2ccccc2s1` [Example 103, (1R,2S,3R,5R)-3-((5-(benzo[d]thiazol-2-yl)-2-((4-hydroxyphenyl)amino)-6-methylpyrimidin-4-yl)amino)-5-(hydroxymethyl)cyclopentane-1,2-diol] gave an IC50 of 243 nM.
Turning to `Cc1nc(Nc2ccccn2)nc(N[C@@H]2C[C@H](CO)[C@@H](O)[C@H]2O)c1-c1nc2ccccc2s1` [Example 97, (1R,2S,3R,5R)-3-((5-(benzo[d]thiazol-2-yl)-6-methyl-2-(pyridin-2-ylamino)pyrimidin-4-yl)amino)-5-(hydroxymethyl)cyclopentane-1,2-diol], the IC50 came to 11300 nM.
Compound `OC[C@H]1C[C@@H](Nc2nc(NC3CCNCC3)ncc2-c2nc3ccccc3s2)[C@H](O)[C@@H]1O` [Example 52, (1R,2S,3R,5R)-3-((5-(benzo[d]thiazol-2-yl)-2-(piperidin-4-ylamino)pyrimidin-4-yl)amino)-5-(hydroxymethyl)cyclopentane-1,2-diol] had an IC50 of 687 nM.
With `Cc1cnccc1Nc1ncc(-c2nc3ccccc3s2)c(N[C@@H]2C[C@H](CO)[C@@H](O)[C@H]2O)n1` [Example 8, (1R,2S,3R,5R)-3-((5-(benzo[d]thiazol-2-yl)-2-((3-methylpyridin-4-yl)amino)pyrimidin-4-yl)amino)-5-(hydroxymethyl)cyclopentane-1,2-diol], it took 516 nM to reach half-maximal inhibition (IC50).
Take `Cc1nc(N)nc(N[C@@H]2C[C@H](CO)[C@@H](O)[C@H]2O)c1-c1nc(Br)cs1` [Example 95, (1R,2S,3R,5R)-3-((2-amino-5-(4-bromothiazol-2-yl)-6-methylpyrimidin-4-yl)amino)-5-(hydroxymethyl)cyclopentane-1,2-diol]: the IC50 was determined as 4650 nM.
Consider `Cc1cc(Nc2ncc(-c3nc4ccccc4s3)c(N[C@@H]3C[C@H](C(C)(C)O)[C@@H](O)[C@H]3O)n2)ccn1` [Example 127, (1R,2S,3R,5S)-3-((5-(benzo[d]thiazol-2-yl)-2-((2-methylpyridine-4-yl)amino)pyrimidin-4-yl)amino)-5-(2-hydroxypropan-2-yl)cyclopentane-1,2-diol], for which the IC50 stood at 16 nM.
The compound `OC[C@H]1C[C@@H](Nc2nc(Nc3ccnc(F)c3)ncc2-c2nc3ccccc3s2)[C@H](O)[C@@H]1O` [Example 6, (1R,2S,3R,5R)-3-((5-(benzo[d]thiazol-2-yl)-2-((2-fluoropyridin-4-yl)amino)pyrimidin-4-yl)amino)-5-(hydroxymethyl)cyclopentane-1,2-diol] gave an IC50 of 2560 nM.
`OC[C@H]1C[C@@H](Nc2nc(Nc3cccnc3)ncc2-c2nc3ccccc3s2)[C@H](O)[C@@H]1O` [Example 37, (1R,2S,3R,5R)-3-((5-(benzo[d]thiazol-2-yl)-2-(pyridin-3-ylamino)pyrimidin-4-yl)amino)-5-(hydroxymethyl)cyclopentane-1,2-diol]: half-maximal inhibition (IC50) was put at 10 nM.
Under `Cc1nc(NCCCN2CCN(C)CC2)nc(N[C@@H]2C[C@H](CO)[C@@H](O)[C@H]2O)c1-c1nc2ccccc2s1` [Example 89, (1R,2S,3R,5R)-3-((5-(benzo[d]thiazol-2-yl)-6-methyl-2-((3-(4-methylpiperazin-1-yl)propyl)amino)pyrimidin-4-yl)amino)-5-(hydroxymethyl)cyclopentane-1,2-diol] stands 6090 nM; under `Cc1csc(-c2cnc(N)nc2N[C@@H]2C[C@H](C(C)(C)O)[C@@H](O)[C@H]2O)n1` [Example 132, (1R,2S,3R,5S)-3-((2-amino-5-(4-methylthiazol-2-yl)pyrimidin-4-yl)amino)-5-(2-hydroxypropan-2-yl)cyclopentane-1,2-diol], 54 nM.
Under `CC(C)(O)C1C[C@@H](Nc2nc(Nc3cc(F)cc(F)c3)ncc2-c2nc3ccccc3s2)[C@H](O)[C@@H]1O` (stereo in doubt) [Example 122, 5-(benzo[d]thiazol-2-yl)-2-((3,5-difluorophenyl)amino)-6-(((1R,2S,3R,4R)-2,3-dihydroxy-4-(2-hydroxypropan-2-yl)cyclopentyl)amino)pyrimidine] stands 163 nM; under `C[C@H]1C[C@@H](Nc2nc(N)ncc2-c2nc3ccccc3s2)[C@H](O)[C@@H]1O` [Example 146, (1R,2S,3R,5S)-3-((2-amino-5-(benzo[d]thiazol-2-yl)pyrimidin-4-yl)amino)-5-methylcyclopentane-1,2-diol], 290 nM.
As for `Cc1cc(Nc2nc(C)c(-c3nc4ccccc4s3)c(N[C@@H]3C[C@H](CO)[C@@H](O)[C@H]3O)n2)ccn1` [Example 100, (1R,2S,3R,5R)-3-((5-(benzo[d]thiazol-2-yl)-6-methyl-2-((2-methylpyridin-4-yl)amino)pyrimidin-4-yl)amino)-5-(hydroxymethyl)cyclopentane-1,2-diol], the figure is 138 nM; as for `OC[C@H]1C[C@@H](Nc2nc(Nc3ccccc3)ncc2-c2nc3ccccc3s2)[C@H](O)[C@@H]1O` [Example 1, (1R,2S,3R,5R)-3-((5-(benzo[d]thiazol-2-yl)-2-(phenylamino)pyrimidin-4-yl)amino)-5-(hydroxymethyl)cyclopentane-1,2-diol], 20 nM.
`CC(C)(O)C1C[C@@H](Nc2nc(Nc3ccnc(C(F)(F)F)c3)ncc2-c2nc3ccccc3s2)[C@H](O)[C@@H]1O` (stereo in doubt) [Example 120, 5-(benzo[d]thiazol-2-yl)-6-(((1R,2S,3R,4R)-2,3-dihydroxy-4-(2-hydroxypropan-2-yl)cyclopentyl)amino)-2-((2-(trifluoromethyl)pyridin-4-yl)amino)pyrimidine] showed an IC50 of 10 nM.
`OC[C@H]1C[C@@H](Nc2nc(NCC3CC3)ncc2-c2nc3ccccc3s2)[C@H](O)[C@@H]1O` [Example 15, (1R,2S,3R,5R)-3-((5-(benzo[d]thiazol-2-yl)-2-((cyclopropylmethyl)amino)pyrimidin-4-yl)amino)-5-(hydroxymethyl)cyclopentane-1,2-diol] came in with an IC50 of 333 nM.
